This is an account of results in patent US20250255981A1, “IMMUNOMODULATORY ANTIBODY-DRUG CONJUGATES” (Seagen Inc., priority 2022, published 2025).

Values after ≈ are worked out from the molar mass of the structure shown. Like-named read-outs stand apart in the source and are kept apart here. Where only a bound is given, the exact number is not on record here.

The subject of this test is THP1-Dual™ cells (IRF-Lucia luciferase reporter). As to the kind of experiment: THP1-Dual™ cell reporter assay. In kind it is cell-based, human. The note with it: for EC50, Lucia reporter signal: ADC: drug linker conjugated to targeted mAb; for EC50, Lucia reporter signal / EC50: some values average of multiple experiments; for EC50: small molecules, 24 h, >10,000 nM = minimal activity up to 10 μM, read-out: EC50, Lucia reporter signal. As to the method:
Potency of compounds and ADCs was evaluated using the THP1-Dual™ cells (Invivogen PN: thpd-nfis [also referred to as THP1 dual reporter cells]), which contain an IRF-Lucia luciferase reporter. Cells were cultured in RPMI-1640 (Gibco) with 10% heat-inactivated fetal bovine serum, Pen-Strep (100 U/mL-100 […], Gibco), HEPES (10 mM, Gibco)), sodium pyruvate (1 mM, Gibco), MEM non-essential amino acids (1×, Gibco), GlutaMAX (1×, Gibco), and beta-mercaptoethanol (55 μM, Gibco). Cells were plated in a 96-well flat bottom tissue culture-treated clear polystyrene plate (Corning Costar #3596) at ˜100,000 cells per well in 200 μL with the indicated concentration of the compound or ADC. The supernatant was harvested at 24 hours (compounds) or 48 hours (ADC) post plating for the reporter assay, or as indicated. To measure Lucia reporter signal, 10 µL of the supernatant was combined with 40 µL of QUANTI-Luc™ Luminescence assay reagent (Invivogen PN: rep-qlc1) in a 96-well clear flat bottom tissue culture-treated black polystyrene plate (Corning Costar #3603) and read on a Perkin Elmer Envision plate reader.

On to `CCn1nc(C)cc1C(=O)Nc1nc2cc(C(N)=O)cc(OC)c2n1C/C=C/Cn1c(NC(=O)c2ncccn2)nc2cc(C(N)=O)cc(OCCCN(C)C(=O)CCN3C(=O)C=CC3=O)c21` [compound 101], for which the “EC50, Lucia reporter signal” value (48 h) is >10,000 ng/mL.
Same read-out and setting: then `CCc1nc(C)oc1C(=O)Nc1nc2cc(C(N)=O)cc(OCCCN(C)C(=O)CCN3C(=O)C=CC3=O)c2n1C/C=C/Cn1c(NC(=O)c2cc(C)nn2CC)nc2cc(C(N)=O)cc(OC)c21` [compound 112], with 2 ng/mL (≈ 0.00211 µM).
As for `CCn1nc(C)cc1C(=O)Nc1nc2cc(C(N)=O)cc(O)c2n1C/C=C/Cn1c(NC(=O)c2cc(C)nn2CC)nc2cc(C(N)=O)cc(OCCCNC)c21` [Compound 15b], the EC50 was determined as 5.8 nM. For the same compound, the “relative potency of free drug, Lucia reporter” value (free drug, 24 h (48 h elsewhere in the source)) was “more potent than 12a”.
Turning to `CCn1nc(C)cc1C(=O)Nc1nc2cc(C(N)=O)cc(OC)c2n1C/C=C/Cn1c(NC(=O)c2cc(C)nn2CC)nc2cc(C(N)=O)cc(OCCCN(C)C(=O)OCc3ccc(O[C@@H]4O[C@H](C(=O)O)[C@@H](O)[C@H](O)[C@H]4O)cc3NC(=O)CCNC(=O)CCN3C(=O)C=CC3=O)c21` [compound 13], where the note is “drug linker conjugated to targeted mAb, 48 h”, the “relative potency / activity of ADC, Lucia reporter” value was “more potent when conjugated to a targeted mAb via a cleavable glucuronide linker (13) than the similar compound 1 conjugate (11)”.
As for `CCn1cc(C)nc1C(=O)Nc1nc2cc(C(N)=O)cc(OCCCN(C)C(=O)CCN3C(=O)C=CC3=O)c2n1C/C=C/Cn1c(NC(=O)c2cc(C)nn2CC)nc2cc(C(N)=O)cc(OC)c21` [compound 103], the “EC50, Lucia reporter signal” value (48 h) is on record as >10,000 ng/mL.
For the compound `CCn1nc(C)cc1C(=O)Nc1nc2cc(C(N)=O)cc(OC)c2n1C/C=C/Cn1c(NC(=O)c2cc(C)nn2CC)nc2cc(C(N)=O)cc(OCCCN(C)C(=O)CCN3C(=O)C=CC3=O)c21` [compound 12, (E)-1-(4-(5-carbamoyl-2-(1-ethyl-3-methyl-1H-pyrazole-5-carboxamido)-7-methoxy-1H-benzo[d]imidazol-1-yl)but-2-en-1-yl)-7-(3-(3-(2,5-dioxo-2,5-dihydro-1H-pyrrol-1-yl)-N-methylpropanamido)propoxy)-2-(1-ethyl-3-methyl-1H-pyrazole-5-carboxamido)-1H-benzo[d]imidazole-5-carboxamide], the 50% effective concentration (EC50) (Homo sapiens, THP1-Dual) was 37 nM.
Regarding `CCn1nc(C)cc1C(=O)Nc1nc2cc(C(N)=O)cc(OC)c2n1C/C=C/Cn1c(NC(=O)c2cc(C)nn2CC)nc2cc(C(N)=O)cc(OCCCOC3CN(C(=O)CCN4C(=O)C=CC4=O)C3)c21` [Compound 27, (E)-1-(4-(5-carbamoyl-2-(1-ethyl-3-methyl-1H-pyrazole-5-carboxamido)-7-methoxy-1H-benzo[d]imidazol-1-yl)but-2-en-1-yl)-7-(3-((1-(3-(2,5-dioxo-2,5-dihydro-1H-pyrrol-1-yl)propanoyl)azetidin-3-yl)oxy)propoxy)-2-(1-ethyl-3-methyl-1H-pyrazole-5-carboxamido)-1H-benzo[d]imidazole-5-carboxamide], for the setting “48 h”, the “EC50, Lucia reporter signal” value stood at 10.4 ng/mL (≈ 0.0105 µM).
On the same count and under the same terms, then `CCc1nc(C)sc1C(=O)Nc1nc2cc(C(N)=O)cc(OCCCN(C)C(=O)CCN3C(=O)C=CC3=O)c2n1C/C=C/Cn1c(NC(=O)c2cc(C)nn2CC)nc2cc(C(N)=O)cc(OC)c21` [compound 111], with 13.2 ng/mL (≈ 0.0137 µM); and `CCn1nc(C)cc1C(=O)Nc1nc2cc(S(N)(=O)=O)ccc2n1C/C=C/Cn1c(NC(=O)c2cc(C)nn2CC)nc2cc(C(N)=O)cc(OCCCN(C)C(=O)CCN3C(=O)C=CC3=O)c21` [Compound 25, (E)-7-(3-(3-(2,5-dioxo-2,5-dihydro-1H-pyrrol-1-yl)-N-methylpropanamido)propoxy)-2-(1-ethyl-3-methyl-1H-pyrazole-5-carboxamido)-1-(4-(2-(1-ethyl-3-methyl-1H-pyrazole-5-carboxamido)-5-sulfamoyl-1H-benzo[d]imidazol-1-yl)but-2-en-1-yl)-1H-benzo[d]imidazole-5-carboxamide], with 307 ng/mL (≈ 0.323 µM); and `CCn1nc(C)cc1C(=O)Nc1nc2cc(C(N)=O)cc(OC)c2n1C/C=C/Cn1c(NC(=O)c2cc(C)nn2CC)nc2cc(C(N)=O)cc(OCCCN(C)C(=O)[C@H](Cc3ccc(OC)cc3)NC(=O)CCN3C(=O)C=CC3=O)c21` [compound 124], with 9.1 ng/mL (≈ 0.00811 µM).
The same measure, in the same setting: then `CCn1nc(C)cc1C(=O)Nc1nc2cc(S(N)(=O)=O)ccc2n1C/C=C/Cn1c(NC(=O)c2cc(C)nn2C)nc2cc(C(N)=O)cc(OCCCOC3CN(C(=O)CCN4C(=O)C=CC4=O)C3)c21` [compound 147, (E)-2-(1,3-dimethyl-1H-pyrazole-5-carboxamido)-7-(3-((1-(3-(2,5-dioxo-2,5-dihydro-1H-pyrrol-1-yl)propanoyl)azetidin-3-yl)oxy)propoxy)-1-(4-(2-(1-ethyl-3-methyl-1H-pyrazole-5-carboxamido)-5-sulfamoyl-1H-benzo[d]imidazol-1-yl)but-2-en-1-yl)-1H-benzo[d]imidazole-5-carboxamide], with >10,000 ng/mL.
The same measure, in the same setting: under `CCn1nc(C)cc1C(=O)Nc1nc2cc(C(N)=O)cc(OC)c2n1C/C=C/Cn1c(NC(=O)c2cc(C)nn2C)nc2cc(C(N)=O)cc(OCCC3CN(C(=O)CCN4C(=O)C=CC4=O)C3)c21` [compound 149, (E)-1-(4-(5-carbamoyl-2-(1,3-dimethyl-1H-pyrazole-5-carboxamido)-7-(2-(1-(3-(2,5-dioxo-2,5-dihydro-1H-pyrrol-1-yl)propanoyl)azetidin-3-yl)ethoxy)-1H-benzo[d]imidazol-1-yl)but-2-en-1-yl)-2-(1-ethyl-3-methyl-1H-pyrazole-5-carboxamido)-7-methoxy-1H-benzo[d]imidazole-5-carboxamide] stands >10,000 ng/mL; under `CCn1nc(C)cc1C(=O)Nc1nc2cc(S(N)(=O)=O)ccc2n1C/C=C/Cn1c(NC(=O)c2cc(C)nn2CC)nc2cc(C(N)=O)cc(OCCCOC3CN(C(=O)CCN4C(=O)C=CC4=O)C3)c21` [compound 146, (E)-7-(3-((1-(3-(2,5-dioxo-2,5-dihydro-1H-pyrrol-1-yl)propanoyl)azetidin-3-yl)oxy)propoxy)-2-(1-ethyl-3-methyl-1H-pyrazole-5-carboxamido)-1-(4-(2-(1-ethyl-3-methyl-1H-pyrazole-5-carboxamido)-5-sulfamoyl-1H-benzo[d]imidazol-1-yl)but-2-en-1-yl)-1H-benzo[d]imidazole-5-carboxamide], >10,000 ng/mL.
In the case of `CCn1nc(C)cc1C(=O)Nc1nc2cc(C(N)=O)cc(OC)c2n1C/C=C/Cn1c(NC(=O)c2cc(C)nn2CC)nc2cc(C(N)=O)cc(OCCCN(C)C(=O)[C@H](CC(=O)OC)NC(=O)CCN3C(=O)CC(SC[C@H](N)C(=O)O)C3=O)c21` (stereo partly shown) [compound 72], the concentration for a half-maximal effect (EC50) (Homo sapiens, THP1-Dual) was 275 nM.
In the case of `CCn1nc(C)cc1C(=O)Nc1nc2cc(C(N)=O)cc(OC)c2n1C/C=C/Cn1c(NC(=O)c2cc(C)nn2CC)nc2cc(C(N)=O)cc(OCCCN(C(=O)CCN3C(=O)C=CC3=O)C3CC3)c21` [compound 133, (E)-1-(4-(5-carbamoyl-2-(1-ethyl-3-methyl-1H-pyrazole-5-carboxamido)-7-methoxy-1H-benzo[d]imidazol-1-yl)but-2-en-1-yl)-7-(3-(N-cyclopropyl-3-(2,5-dioxo-2,5-dihydro-1H-pyrrol-1-yl)propanamido)propoxy)-2-(1-ethyl-3-methyl-1H-pyrazole-5-carboxamido)-1H-benzo[d]imidazole-5-carboxamide], the “EC50, Lucia reporter signal” value (48 h) amounted to 12.2 ng/mL (≈ 0.0126 µM).
